Assay results from patent US9845482B2, “Compositions and methods for enhancing bioenergetic status in female germ cells” (The General Hospital Corporation, priority 2011, dated 2017).
“Also recorded” adds a separate entry of the source. Like-named read-outs stand apart in the source and are kept apart here.

Legend:
murine OSCs = assay: Mitochondrial DNA copy number in murine OSCs treated with NMN; format: cell-based
From the text: FIG. 40 is a graph showing that nicotinamide mononucleotide increases mitochondrial DNA content in murine OSCs. Total cellular DNA was isolated from cells at the indicated time points using DNEASY® Blood & Tissue Kit (Qiagen, Venlo, The Netherlands) according to the manufacturer's instructions. Mt DNA copy number was quantified using LIGHTCYCLER®480 SYBR® Green I Master (Roche Applied Science, Penzberg, Germany) using a LIGHTCYCLER®480 PCR machine (Roche Applied Science, Penzberg, Germany). […]
For all experiments 25,000 cells were plated in each well of a 24 well plate. […] Mitochondrial DNA Copy number was analysed as follows. […] Mitochondrial DNA copy number was quantified using LIGHTCYCLER 480 SYBR® Green I Master (Roche Applied Science, Penzberg, Germany) using the following primers on a LIGHTCYCLER480 PCR machine (Roche Applied Science (Penzberg, Germany).

[1] = tested on: skeletal muscle of 24-month old mice; assay: Mitochondrial function in vivo after NMN; conditions: 1 week of treatment, I.P.
From the text: (§1) NMN is delivered by intraperitoneal (I.P.) injection and raises NAD levels in brain, heart and skeletal muscle ˜30-100%. NMN increases mitochondrial function in C2C12 cells in a SIRT1-dependent manner (FIGS. 43C, D). sh Ct1=scrambled shRNA, Sh SIRT1=shRNA against SIRT1.
(§2) NMN and other compounds that increase NAD^+ levels are useful for increasing fertility or otherwise reducing or reversing infertility in a female subject. In one embodiment, such compounds are delivered to a subject orally, by intraperitoneal injection (IP), or subcutaneously to increase the probability that the subject will conceive and deliver healthy offspring. Systemic administration of the NAD^+ precursor NMN raised NAD^+ levels in vivo in young and old mice. Cardiac [NAD^+] declines with age. This decline in NAD^+ was reversed by NMN treatment (n=3; 200 mg·kg·d. I.P. for 1 week)(FIG. 42). […] In another embodiment, NMN and other compounds that increase NAD^+ levels are delivered to an OSC, oocyte, blasotcyst, sperm, or isolated mitochondria in vitro. For example, such compounds are delivered to a germ cell prior to, during or following IVF. In another embodiment, a compound of the invention is used to enhance the yield or preservation of mitochondria from an OSC, oocyte, blasotcyst, sperm, or isolated mitochondria in vitro.

[2] = tested on: murine oogonial stem cells (OSCs); assay: NAD+/NADH quantitation in murine OSCs treated with NMN; format: cell-based; conditions: NMN added at 12 h and 6 h prior to analysis
Procedure: FIGS. 39A-39C are graphs showing that nicotinamide mononucleotides raise cellular NAD^+ and NAD+/NADH in murine oogonial stem cells (OSCs). Oogonial stem cells were isolated from dissociated ovaries using a FACS based sorting protocol to purify OSCs free of contaminating oocytes (see Example 1). Cells were maintained in culture medium consisted of minimum essential medium α (MEMα), 10% FBS, 1 mM sodium pyruvate, 1 mM non-essential amino acids, 2 mM L-glutamine, 0.1 mM β-mercaptoethanol (Sigma Aldrich Corporation, St. Louis, Mo., USA), 10 ng/ml-1 LIF (Millipore), 1× N-2 MAX Media Supplement (R&D) 10 ng/ml EGF (Epidermal growth factor, Recombinant human; Gibco Division of ThermoFisher Scientific, Waltham, Mass., USA), 40 ng/ml human GDNF (glial cell line-derived neurotrophic factor; R&D systems), 1 ng/ml human bFGF (basic fibroblast growth factor; Gibco Division of ThermoFisher Scientific, Waltham, Mass., USA).
Oogonial stem cells were isolated from dissociated ovaries using a FACS based sorting protocol to purify OSCs free of contaminating oocytes (for details, see Example 1), Cells were maintained in culture medium consisted of minimum essential medium α (MEMα), 10% FBS, 1 mM sodium pyruvate, 1 mM […], 2 mM L-1-glutamine, 0.1 mM β-mercaptoethanol (Sigma), 10 ng/ml-1 LIF (Millipore), 1× N-2 MAX Media Supplement (R&D) 10 ng/ml EGF (Epidermal growth factor, Recombinant human; Gibco Division of Thermofisher Scientific, Waltham, Mass., USA), 40 ng/nil human GDNF (glial cell line-derived neurotrophic factor; R&D systems), 1 ng/ml human bFGF (basic fibroblast growth factor; Gibco Division of Thermofisher Scientific, Waltham, Mass., USA)
For all experiments 25,000 cells were plated in each well of a 24 well plate. Cells were allowed to attach for twenty-four hours and then were treated with NMN (β-Nicotinamide mononucleotide; Sigma). Unless otherwise stated, NMN was added twice to the cells, first at twelve hours and then again at six hours prior to analysis (12+6 h). Mitochondrial DNA Copy number was analysed as follows. Total cellular DNA was isolated from cells at the indicated time points using DNeasy Blood & Tissue Kit (Qiagen) according to the manufacturer's instructions. Mitochondrial DNA copy number was quantified using LIGHTCYCLER 480 SYBR® Green I Master (Roche Applied Science, Penzberg, Germany) using the following primers on a LIGHTCYCLER480 PCR machine (Roche Applied Science (Penzberg, Germany).
OSCs and oocytes treated with an NAD precursor (e.g. […] ie. “NMN”, see FIG. 38) had increased NAD^+, NAD^+:NADH, and mitochondrial DNA content (FIG. 40).

[3] = tested on: cultured murine oogonial stem cells; assay: Spontaneous oocyte formation in cultured murine OSCs after NMN; format: cell-based; conditions: 25,000 OSCs per well of a 24-well plate
Procedure: FIG. 41 is a graph showing that nicotinamide mononucleotide increases spontaneous oocyte formation in cultured murine oogonial stem cells. For assessment of spontaneous oocyte formation, each well of a 24-well plate was seeded with 25,000 OSCs, and the number of oocytes formed and released into the medium per well was assessed the second day after seeding as well as the designated time points after NMN treatment.
Each well of a 24-well plate was seeded with 25,000 OSCs. The number of oocytes formed and released into the medium per well was assessed the second day after seeding as well as the designated time points after NMN treatment. […] NMN treatment is also expected to enhance the function of OCSsOSCs, oocytes, granulose cells, and blood vessels in the ovary.

C2C12 cells = assay: Mitochondrial function in C2C12 cells with NMN (scrambled vs SIRT1 shRNA); format: cell-based; conditions: SIRT1-dependent manner
From the text: as §1

young and old mice = assay: NAD+ levels in vivo after systemic NMN
Procedure: FIG. 42 is a graph showing that the NAD^+ precursor NMN raises NAD^+ levels in vivo in young and old mice. Cardiac [NAD^+] declines with age and is reversed by NMN treatment (n=3; 200 mg·kg·d. I.P. for 1 week).
as §1, §2

OSCs from mice = assay: Screen of mouse OSCs for compounds that enhance mitochondrial function (mtDNA, ATP, mitochondrial mass, membrane potential, gene expression); format: cell-based; conditions: 24 hours
From the text: Female infertility due to chemotherapy, aging and premature ovarian failure (POF) is due in part to a decline in mitochondrial function in oocytes and OSCs. Accordingly, OSCs from mice were used to screen for small compounds that enhance mitochondrial function (“bioenergetic status”) in female germline cells. Assays for enhancing mitochondrial function included mtDNA content, ATP, NAD+/NADH, mitochondrial mass, mitochondrial membrane potential, and gene expression of known mitochondrial mass regulators and electron transport chain components.
All the compounds were dissolved in DMSO. For screening purposes the cells were treated with the vehicle (0.001% DMSO) or with 25 or 50 μM of each compound (except for berberine, which the concentrations used for the screen were 5 μM and 25 μM) for 24 hours. For validation of the top 6 hits, cells were treated with vehicle (0.001% DMSO) or either 5 or 25 μM of each compound for 24 hours. For the gene expression profile, the cells were treated with the concentration that was considered to work better in the previous validation assays.
Mitochondrial membrane potential was measured with a fluorescent probe, Tetramethylrhodamine methyl ester (TMRM) (Sigma) as described before (Rolo A. P. Biochim. Biophys. Acta 2003 1637: 127-132). Briefly the cells were loaded with 6.6 μM TMRM in HBSS buffer at 37° C. for 15 minutes in the dark. The supernatant was then aspirated, and the cells returned to the original volume with KHH. TMRM is a membrane-permeable cationic fluorophore that accumulates electrophoretically in mitochondria in proportion to their mitochondrial membrane potential (Ehrenberg B. V. et al. Biophys. J. 1988 53:785-794). Cell suspensions (200 μl containing 10^5 cells) were loaded into 96-well plates and fluorescence measured using excitation and emission wavelengths of 485 and 590 nm, respectively. Mitochondrial membrane potential was estimated, taking into account the complete depolarization caused by carbonyl cyanide p-(trifluoromethoxy)phenylhydrazone (FCCP).
For mtDNA analysis, total DNA was extracted with DNeasy blood and tissue kit (QIAGEN). mtDNA was amplified using primers specific for the mitochondrial cytochrome c oxidase subunit 2 (COX2) gene and normalized to genomic DNA by amplification of the ribosomal protein s18 (rps18) nuclear gene. Primers were designed using the IDT software (IDT).
ATP content was measured using a luciferase-based assay with a commercial kit according to the manufacturer's instructions (Roche Applied Science, Penzberg, Germany) and normalized to protein content in each sample.
Mitochondrial mass was evaluated using the fluorescent probe N-nonyl acridine orange (NAO), briefly the cells were incubated in culture media containing 10 nM of NAO for 30 minutes at 37° C. in the dark. The cells were then trypsinized and resuspended in culture media without NAO. The NAO fluorescence intensity was then determined by flow cytometry on the FACSCALIBUR® (BD Biosciences, San Jose, Calif., USA) using the 488 nm laser.
For gene expression analysis, RNA from skeletal muscle tissue and C2C12 cells were extracted with RNeasy mini kit (QIAGEN) according to the instructions and quantified using the NanoDrop 1000 spectrophotometer (Thermo Scientific). cDNA was synthesized with the iSCRIP cDNA synthesis kit (BioRad) using 200 ng of RNA. Quantitative RT-PCR reactions were performed using 1 μM of primers and LIGHTCYCLER® 480 SYBR® Green Master (Roche Applied Science, Penzberg, Germany) on an LIGHTCYCLER® 480 detection system (Roche Applied Science, Penzberg, Germany). Calculations were performed by a comparative method (2-ΔΔCT) using actin as an internal control. Primers were designed using the IDT software (IDT).

Mouse OSCs = assay: NAD+ and NADH levels in mouse OSCs treated with mitochondrial enhancers; format: cell-based; conditions: 24 hours
Procedure: FIG. 35 depicts levels of NAD+ (A) and NADH (B) in OSCs treated with mitochondrial enhancers. Mouse OSCs maintained in culture (Zou et al., Nat Cell Biol 2009 11:631-636) were exposed to the indicated test compounds for 24 hours and then assessed for levels of NAD+ and NADH. Female infertility due to chemotherapy, aging and premature ovarian failure (POF) is due in part to a decline in mitochondrial function in oocytes and OSCs. Accordingly, OSCs from mice were used to screen for small compounds that enhance mitochondrial function (“bioenergetic status”) in female germline cells. Assays for enhancing mitochondrial function included mtDNA content, ATP, NAD+/NADH, mitochondrial mass, mitochondrial membrane potential, and gene expression of known mitochondrial mass regulators and electron transport chain components. All the compounds were dissolved in DMSO. For screening purposes the cells were treated with the vehicle (0.001% DMSO) or with 25 or 50 μM of each compound (except for berberine, which the concentrations used for the screen were 5 μM and 25 μM) for 24 hours. For validation of the top 6 hits, cells were treated with vehicle (0.001% DMSO) or either 5 or 25 μM of each compound for 24 hours. For the gene expression profile, the cells were treated with the concentration that was considered to work better in the previous validation assays.

[4] = listed as nicotinamide mononucleotide
[5] = listed as nicotinamide mononucleotides

Row | SMILES | mitochondrial DNA content (murine OSCs) | mitochondrial DNA content (murine OSCs; [4]) | mitochondrial function in vivo (decline in skeletal muscle of 24-month old mice) [1] | NAD+/NADH [2] | cellular NAD^+ [2] | NAD+/NADH [2, 5] | cellular NAD^+ [2, 5] | spontaneous oocyte formation (rate of egg formation, EFA) [3] | spontaneous oocyte formation (rate of egg formation, EFA) [3, 4] | mitochondrial function in C2C12 cells (C2C12 cells) | decline of cardiac [NAD^+] with age (young and old mice; 200 mg·kg·d. I.P. for 1 week, n=3) | raise of NAD levels in brain, heart and skeletal muscle (young and old mice; intraperitoneal (I.P.) injection) | NAD^+ levels in vivo (young and old mice; young and old mice, systemic administration) | mitochondrial parameters (OSCs from mice) | activity above the baseline (DMSO alone), scored as a positive result (OSCs from mice; 25 or 50 μM (berberine 5 μM and 25 μM)) | NAD^+ levels (Mouse OSCs)
1 | NC(=O)c1ccc[n+]([C@@H]2O[C@H](COP(=O)([O-])O)[C@@H](O)[C@H]2O)c1 [NMN, β-Nicotinamide mononucleotide] | increased | increases | restorative effect; also recorded: completely reversed | increased | increased | raise | raise | increased | increases | increases | reversed | 30-100% | raises |  |  | 
2 | N#CC(C#N)=Cc1ccc(O)cc1 [tyrphostin 8, 2[(4-hydroxyphenyl)methylidene]propanedinitrile] |  |  |  |  |  |  |  |  |  |  |  |  |  | increase mitochondrial parameters in a beneficial way | activity above the baseline | raise
